Patent US12172983B2, “EGFR inhibitors” (Blueprint Medicines Corporation, priority 2019, dated 2024)

Key:
EGFR (L858R T790M C797S) = molecular target: T1, EGFR (L858R T790M C797S) (Homo sapiens, UniProt P00533, C797S/L858R/T790M); assay: Biochemical EGFR inhibition assay (Caliper mobility shift), EGFR LRTMCS mutant; details: inhibitory activity against EGFR LRTMCS mutant; apparent IC50; read-out: Ext Enz LRTMCS
T1 construct: purchased SignalChem E10-122VG
How it was run: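 Caliper mobility shift read-out: product and substrate peptides separated by electrophoresis and quantified. Reactions at 25° C. taken to 10–20% peptide phosphorylation, quenched with 35 mM EDTA. Apparent IC50 from percent activity vs log [compound].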

[1] = system: phosphorylation of EGFR (Tyr1068) in NCI-H1975 cell line that harbors the EGFR L858R T790M mutations; assay: NCI-H1975 pEGFR AlphaLISA assay; format: cell-based; details: Homo sapiens, NCI-H1975, inhibition of phosphorylation of mutant EGFR in NCI-H1975 cells; 4-5 hours incubation; read-out: Ext pEGFR H1975
How it was run: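 Phospho-EGFR Tyr1068 AlphaLISA readout: lysates taken from compound-treated H1975 cells (L858R T790M EGFR) after a 4-5 h exposure at 37 °C. Cells had adhered overnight beforehand. IC50 derived by plotting % pEGFR inhibition against log compound concentration.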

T1 sequence (P00533 25-1210 T790M/C797S/L858R): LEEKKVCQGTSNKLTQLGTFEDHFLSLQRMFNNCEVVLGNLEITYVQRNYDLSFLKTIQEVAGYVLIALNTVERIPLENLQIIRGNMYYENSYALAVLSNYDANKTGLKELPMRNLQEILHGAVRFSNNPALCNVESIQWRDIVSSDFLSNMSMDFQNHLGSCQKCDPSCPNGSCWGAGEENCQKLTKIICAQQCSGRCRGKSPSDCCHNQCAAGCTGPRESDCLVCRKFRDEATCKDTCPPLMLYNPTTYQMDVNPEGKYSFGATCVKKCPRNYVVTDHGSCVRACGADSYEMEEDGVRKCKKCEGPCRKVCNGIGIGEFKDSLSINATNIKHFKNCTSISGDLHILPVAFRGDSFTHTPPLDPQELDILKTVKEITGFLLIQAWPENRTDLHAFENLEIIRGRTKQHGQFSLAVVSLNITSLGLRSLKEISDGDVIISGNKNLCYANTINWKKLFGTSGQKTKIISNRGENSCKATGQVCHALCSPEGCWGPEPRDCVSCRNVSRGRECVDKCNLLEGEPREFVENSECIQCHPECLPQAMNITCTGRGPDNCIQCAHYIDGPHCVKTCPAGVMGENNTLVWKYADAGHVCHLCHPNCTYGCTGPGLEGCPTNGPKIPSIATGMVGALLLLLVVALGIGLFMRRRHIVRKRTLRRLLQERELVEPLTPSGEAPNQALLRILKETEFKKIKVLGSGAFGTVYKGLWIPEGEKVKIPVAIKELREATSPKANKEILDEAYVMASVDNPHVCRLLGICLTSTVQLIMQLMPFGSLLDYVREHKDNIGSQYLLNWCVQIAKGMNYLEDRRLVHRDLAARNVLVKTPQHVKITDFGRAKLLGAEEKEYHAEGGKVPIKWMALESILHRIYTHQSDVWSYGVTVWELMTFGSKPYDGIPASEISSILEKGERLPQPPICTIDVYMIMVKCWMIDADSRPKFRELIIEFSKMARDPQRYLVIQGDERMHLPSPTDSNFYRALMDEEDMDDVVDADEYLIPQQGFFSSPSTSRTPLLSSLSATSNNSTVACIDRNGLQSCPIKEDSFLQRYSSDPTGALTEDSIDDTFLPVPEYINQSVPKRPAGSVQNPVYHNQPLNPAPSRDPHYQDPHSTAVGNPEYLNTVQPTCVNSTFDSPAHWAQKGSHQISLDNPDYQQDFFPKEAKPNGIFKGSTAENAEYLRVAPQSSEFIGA

SMILES	IC50 (EGFR (L858R T790M C797S))	IC50 [1]
CC(C)c1ccc(N2CC(CS(C)(=O)=O)C2)c2cnc(Nc3ccnc(N4CC(C)(C)[C@H](O)C(F)(F)C4)n3)cc12 (single isomer, unassigned) [Compound 213, (4S)-3,3-difluoro-1-[4-({8-[3-(methanesulfonylmethyl)azetidin-1-yl]-5-(propan-2-yl)isoquinolin-3-yl}amino)pyrimidin-2-yl]-5,5-dimethylpiperidin-4-ol or (4R)-3,3-difluoro-1-[4-({8-[3-(methanesulfonylmethyl)azetidin-1-yl]-5-(propan-2-yl)isoquinolin-3-yl}amino)pyrimidin-2-yl]-5,5-dimethylpiperidin-4-ol]	≤ 15 nM	≤ 10 nM
CC(C)c1ncc(N2C[C@H](CS(C)(=O)=O)[C@H]2C)c2cnc(Nc3ccnc(N4CC[C@@](C)(O)C(F)(F)C4)n3)cc12 (single isomer, unassigned) [Compound 214, (4R)-3,3-difluoro-1-[4-({8-[(2R,3S)-3-(methanesulfonylmethyl)-2-methylazetidin-1-yl]-5-(propan-2-yl)-2,6-naphthyridin-3-yl}amino)pyrimidin-2-yl]-4-methylpiperidin-4-ol or (4S)-3,3-difluoro-1-[4-({8-[(2R,3S)-3-(methanesulfonylmethyl)-2-methylazetidin-1-yl]-5-(propan-2-yl)-2,6-naphthyridin-3-yl}amino)pyrimidin-2-yl]-4-methylpiperidin-4-ol]	≤ 15 nM	≤ 10 nM
CC(C)c1cnc(N2C[C@H](CS(C)(=O)=O)[C@H]2C)c2cnc(Nc3ccnc(N4CC[C@@](C)(O)C(F)(F)C4)n3)cc12 (single isomer, unassigned) [Compound 215, (4R)-3,3-difluoro-1-[4-({8-[(2R,3S)-3-(methanesulfonylmethyl)-2-methylazetidin-1-yl]-5-(propan-2-yl)-2,7-naphthyridin-3-yl}amino)pyrimidin-2-yl]-4-methylpiperidin-4-ol or (4S)-3,3-difluoro-1-[4-({8-[(2R,3S)-3-(methanesulfonylmethyl)-2-methylazetidin-1-yl]-5-(propan-2-yl)-2,7-naphthyridin-3-yl}amino)pyrimidin-2-yl]-4-methylpiperidin-4-ol]	≤ 15 nM	≤ 10 nM
COCCO[C@H]1CCN(c2nccc(Nc3cc4c(F)ccc(N5C[C@H](CS(C)(=O)=O)[C@H]5C)c4cn3)n2)C[C@H]1F (single isomer, unassigned) [Compound 216]	≤ 15 nM	10.1 to 20 nM
COCCO[C@@H]1CCN(c2nccc(Nc3cc4c(F)ccc(N5C[C@H](CS(C)(=O)=O)[C@H]5C)c4cn3)n2)C[C@@H]1F (single isomer, unassigned) [Compound 217]	≤ 15 nM	20.1 to 30 nM
CO[C@@H]1[C@H](O)CN(c2nccc(Nc3cc4c(C(C)C)ccc(N5CC(CS(C)(=O)=O)C5)c4cn3)n2)CC1(F)F (single isomer, unassigned) [Compound 218, rac-5,5-difluoro-1-[4-[[5-isopropyl-8-[3-(methylsulfonylmethyl)azetidin-1-yl]-3-isoquinolyl]amino]pyrimidin-2-yl]-4-methoxy-piperidin-3-ol]	≤ 15 nM	≤ 10 nM
CC(C)c1ccc(N2CC(CS(=O)(=O)C(F)F)C2)c2cnc(Nc3ccnc(N4CC[C@@H](O)[C@@](C)(F)C4)n3)cc12 (single isomer, unassigned) [Compound 219]	≤ 15 nM	≤ 10 nM
CC(C)c1cnc(N2CC(CS(=O)(=O)C(F)F)C2)c2cnc(Nc3ccnc(N4CC[C@@H](O)[C@@](C)(F)C4)n3)cc12 (single isomer, unassigned) [Compound 220]	≤ 15 nM	≤ 10 nM
C[C@@H]1[C@@H](CS(C)(=O)=O)CN1c1ccc(C(F)(F)F)c2cc(Nc3ccnc(N4CC[C@@H](O)[C@@](C)(F)C4)n3)ncc12 (single isomer, unassigned) [Compound 222]	≤ 15 nM	≤ 10 nM
CC(C)c1ccc(N2CC(CS(=O)(=O)C3CNC3)C2)c2cnc(Nc3ccnc(N4CC[C@@H](O)[C@@](C)(F)C4)n3)cc12 (single isomer, unassigned) [Compound 223]	20.1 to 30 nM	30.1 to 50 nM
CCS(=O)(=O)C[C@H]1CN(c2ncc(C(C)C)c3cc(Nc4ccnc(N5CC[C@@](C)(O)C(F)(F)C5)n4)ncc23)[C@@H]1C (single isomer, unassigned) [Compound 230, (4R)-1-[4-({8-[(2R,3S)-3-[(ethanesulfonyl)methyl]-2-methylazetidin-1-yl]-5-(propan-2-yl)-2,7-naphthyridin-3-yl}amino)pyrimidin-2-yl]-3,3-difluoro-4-methylpiperidin-4-ol or (4S)-1-[4-({8-[(2R,3S)-3-[(ethanesulfonyl)methyl]-2-methylazetidin-1-yl]-5-(propan-2-yl)-2,7-naphthyridin-3-yl}amino)pyrimidin-2-yl]-3,3-difluoro-4-methylpiperidin-4-ol]	15.1 to 20 nM	≤ 10 nM
CCS(=O)(=O)C[C@H]1CN(c2cnc(C(C)C)c3cc(Nc4ccnc(N5CC[C@@](C)(O)C(F)(F)C5)n4)ncc23)[C@@H]1C (single isomer, unassigned) [Compound 231, (4R)-1-[4-({8-[(2R,3S)-3-[(ethanesulfonyl)methyl]-2-methylazetidin-1-yl]-5-(propan-2-yl)-2,6-naphthyridin-3-yl}amino)pyrimidin-2-yl]-3,3-difluoro-4-methylpiperidin-4-ol or (4S)-1-[4-({8-[(2R,3S)-3-[(ethanesulfonyl)methyl]-2-methylazetidin-1-yl]-5-(propan-2-yl)-2,6-naphthyridin-3-yl}amino)pyrimidin-2-yl]-3,3-difluoro-4-methylpiperidin-4-ol]	≤ 15 nM	≤ 10 nM
CO[C@@H]1[C@H](O)CN(c2nccc(Nc3cc4c(C(C)C)ccc(N5C[C@H](CS(C)(=O)=O)[C@H]5C)c4cn3)n2)CC1(F)F (single isomer, unassigned) [Compound 232, (3S,4S)-5,5-difluoro-1-(4-(5-isopropyl-8-((2R,3S)-2-methyl-3-(methylsulfonylmethyl)azetidin-1-yl)isoquinolin-3-ylamino)pyrimidin-2-yl)-4-methoxypiperidin-3-ol or (3R,4R)-5,5-difluoro-1-(4-(5-isopropyl-8-((2R,3S)-2-methyl-3-(methylsulfonylmethyl)azetidin-1-yl)isoquinolin-3-ylamino)pyrimidin-2-yl)-4-methoxypiperidin-3-ol]	30.1 to 100 nM	≤ 10 nM
CO[C@@H]1[C@H](O)CN(c2nccc(Nc3cc4c(C(C)C)ncc(N5C[C@H](CS(C)(=O)=O)[C@H]5C)c4cn3)n2)CC1(F)F (single isomer, unassigned) [Compound 233, (3R,4R)-5,5-difluoro-1-[4-({8-[(2R,3S)-3-(methanesulfonylmethyl)-2-methylazetidin-1-yl]-5-(propan-2-yl)-2,6-naphthyridin-3-yl}amino)pyrimidin-2-yl]-4-methoxypiperidin-3-ol or (3S,4S)-5,5-difluoro-1-[4-({8-[(2R,3S)-3-(methanesulfonylmethyl)-2-methylazetidin-1-yl]-5-(propan-2-yl)-2,6-naphthyridin-3-yl}amino)pyrimidin-2-yl]-4-methoxypiperidin-3-ol]	≤ 15 nM	≤ 10 nM
